# Assay results: patent US5661182A, “Method for lowering oxygen affinity of hemoglobin in redcell suspensions, in whole blood and in vivo” (Virginia Commonwealth University, priority 1995, dated 1997)
# How the values were obtained:
# [1] = tested on: purified Hb Yakima; assay: Effect on purified Hb Yakima; format: biochemical, human
# [2] = target: hemoglobin in human red blood cells (Homo sapiens, UniProt P68871+P69905); assay: Calculated oxygen delivery index of human red blood cell suspensions (ΔY); format: cell-based; details: human RBC, effector 0.5 mM
# Chain of hemoglobin in human red blood cells (P69905 whole entry): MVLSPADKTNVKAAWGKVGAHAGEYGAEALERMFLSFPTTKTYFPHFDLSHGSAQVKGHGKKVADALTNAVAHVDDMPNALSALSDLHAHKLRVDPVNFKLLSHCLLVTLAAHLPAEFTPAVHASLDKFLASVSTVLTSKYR
# Chain of hemoglobin in human red blood cells (P68871 whole entry): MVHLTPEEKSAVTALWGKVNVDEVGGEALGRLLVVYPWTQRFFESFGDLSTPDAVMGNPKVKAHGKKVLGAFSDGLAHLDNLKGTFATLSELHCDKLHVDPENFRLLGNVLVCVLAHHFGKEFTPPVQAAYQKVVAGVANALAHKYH
# Text: (§1) L3,5 and L3,4,5 were provided by Dr. Lalezari (Montefiore Hospital, New York); RSR-4 [2-[4-[[(3,5-dichloroanilino)carbonyl]methyl]phenoxy]-2-methylpropionic acid]and RSR13 [2-4-[[(3,5- dimethylanilino)carbonyl]methyl]phenoxy]-2-methylpropionic acid] have been synthesized following the procedure described in Randad et al. (J. Med. Chem. 34,752 (1991)). Human serum albumin (HSA), bovine serum albumin (BSA) and 4,4'diisothiocyanatostilbene-2,2'-disulfonate (DIDS) were purchased from Sigma (St. Louis, Mo.). Due to their low solubility in aqueous buffer, 10 mM stock solutions of the compounds were prepared in a slight exccess of sodium bicarbonate and back-titrated to pH 7.4. For example, RSR-4 or RSR-13 was dissolved at 60° C. in a 140 mM NaCl and 50 mM bis-Tris buffer at room temperature upon progressive addition of NaHCO3 to obtain 10 mM stock solutions. The pH was carefully adjusted to 7.4 after complete solubilization and before use of the solutions. Fresh solutions were prepared each week. Stock solutions of DIDS (1 mM) were prepared, in the dark, on the day of the experiments in a pH 7.4 buffer. Human serum albumin (defatted HSA) and bovine serum albumin (BSA) were prepared freshly as 1 mM stock solutions, pH 7.4. Equilibrium Measurements. The allosteric modulation of the effectors on freshly prepared solutions of hemoglobin or red cell suspensions was measured by the change in p50, the partial pressure of oxygen for half-saturation. Oxygen equilibrium curves (OEC) were carried out with the Hemox analyzer (TCS, Southampton, Pa.) under the following conditions: pH 7.4, 140 mM NaCl and 50 mM bis-Tris buffer at 37° C. In all experiments, the concentration of hemoglobin in the red cell suspensions was 20-25 μM hemoglobin tetramer (Hb4) as measured by Drabkin's method (cyanomethemoglobin) at the end of each recording. The final concentration of the allosteric effector in the cuvette was 0.5 mM, resulting in an effector/Hb4 ratio of 20 in the absence of albumin. OEC were also made in the same buffer containing 12.5, 25, 50, and 100 μM HSA (for human red cell suspensions) or BSA (for bovine cell suspensions). The serum albumin experiments were carried out with traces of an antifoaming agent. This agent has no deleterious effect on the red cell suspensions. The molar ratio of albumin to tetrameric hemoglobin was varied from 0.5 (at 12.5 μM HSA) to 4 (at 100 μM HSA); in whole blood this ratio is approximately 0.3 (0.7 mM albumin plus plasma proteins/2.25 mM Hb4). Therefore, the concentration of albumin used in the present studies was always larger relative to tetrameric hemoglobin than that found in whole blood.
# In FIG. 2, curve (1) is the control, curve (2) is the suspension plus 0.5 mM RSR-4, curve (3) is the suspension plus 0.5 mM RSR-4 plus 50 μM HSA, and curve […] is the suspension plus 0.5 mM RSR-4 plus 100 μM HSA. The concentration ratios of albumin/Hb are above those found in vivo. For example, in curve (3) serum albumin is about six times and in curve (4) about twelve times in excess above the concentration ratio of albumin/Hb found in vivo. The vertical lines indicate the physiological pO2 values in the arterial blood (90 mmHg) and in the mixed venous blood (40 mmHg). The change in oxygen saturation between these two lines allows an estimation of the capability of the red blood cells to deliver oxygen to tissues (ΔY (%), as discussed below in conjunction with Table 4).
# In Vivo Estimates for Percent of Oxygen Delivery. Table 4 presents the calculated oxygen delivery index for red blood cell suspensions in the presence or absence of 0.5 mM L3,5 or RSR-4. The experimental conditions for the experiments of Table 4 were the same as those used for Table 1. The oxygen delivery index was calculated from the experimental oxygen binding curves as the difference in hemoglobin oxygen saturation (percent) corresponding to the pO2 in the arterial blood (90 mmHg) and that in the mixed venous blood (40 mMHg). […]
# [3] = tested on: hemoglobin in rat blood; assay: In vivo effect in conscious rats: oxygen dissociation curve of blood after 2-h infusion; details: for sign of distress: rats, during infusion
# Protocol: In Vivo Studies. The in vivo effect of RSR-4 and RSR-13 was assessed in conscious rats that received (through a chronic femoral vein catheter) an initial 85.7±3.7 mg/kg dose of RSR-4 or 84.0±4.0 mg/kg dose of RSR-13, followed by 85.7±3.7mg/(kg h) RSR-4 or 84.0±4.0 mg/(kg h) RSR13, respectively, for 2 h. The oxygen dissociation curve was measured before infusion with a Hemox analyzer and, after the 2-h infusion, was manually measured with a tonometer and visible spectroscopy to avoid a dilution step (used with the Hemox analyzer) that would disrupt the equilibrium between the drug and erythrocytes. Tonometry was performed at a constant/pCO2 of 40 mmHg at 37° C. The pH of the blood was 7.443±0.012 (n=5) for the RSR-13 experiment and 7.412±0.098 (n=7) for the RSR-4 experiment. Control rats received an infusion of buffer solution with NaHCO3. A slight molar excess of NaHCO3 was used to better solubilize RSR-4.
# [4] = target: bovine hemoglobin (Bos taurus, UniProt P01966+P02070); assay: Oxygen equilibrium of isolated bovine Hb solutions (p50); format: biochemical; details: for p50 shift at increasing chloride concentration / Hb bovine(p50): bovine Hb solution; for p50 shift at increasing chloride concentration: 0.5 mM, chloride 0-400 mM; for Hb bovine(p50): effector 0.5 mM, pH 7.2, 100 mM NaCl, 25 °C
# Chain of bovine hemoglobin (P01966 whole entry): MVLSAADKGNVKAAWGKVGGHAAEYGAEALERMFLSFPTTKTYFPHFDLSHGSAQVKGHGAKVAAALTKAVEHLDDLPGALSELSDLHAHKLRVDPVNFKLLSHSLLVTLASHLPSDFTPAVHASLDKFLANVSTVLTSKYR
# Chain of bovine hemoglobin (P02070 whole entry): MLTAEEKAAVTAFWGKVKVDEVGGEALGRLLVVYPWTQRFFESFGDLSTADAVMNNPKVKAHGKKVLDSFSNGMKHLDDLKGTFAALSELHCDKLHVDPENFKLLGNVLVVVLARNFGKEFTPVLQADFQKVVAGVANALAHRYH
# Text: as §1
# Bovine Red Cell Studies. Table 2 presents data for oxygen binding measurements for fresh bovine red blood cells and isolated Hb solutions on addition of the effectors L3,5, RSR-4, and RSR-13. The experimental conditions used were the same as described in conjunction with Table 1 for human red blood cells. The oxygen equilibrium curves for Hb solutions were made at pH 7.2, 100 mM NaCl and 50 mM bis-Tris buffer at 25° C. Catalase (20 μg/mL) and 50 μM EDTA were added to oppose oxidation of the hemes. The concentration of the effectors was 0.5 mM in all conditions. In Table 2, BSA is bovine serum albumin and P50 (mmHg) is the pO2 for 50% saturation.
Compound,state of purified Hb Yakima in the presence of effector [1],ΔY (oxygen delivery index) ([2]; 50 μM HSA) [%],ΔY (oxygen delivery index) ([2]; 100 μM HSA) [%],ΔY (oxygen delivery index) ([2]; no HSA) [%],"p50 ([3]; rats (n=7), 85.7±3.7 mg/kg iv then 85.7±3.7 mg/(kg h) for 2 h, control value 36.4±1.6) [mmHg]","Hill coefficient ([3]; rats (n=7), 85.7±3.7 mg/kg iv then 85.7±3.7 mg/(kg h) for 2 h, initial 2.66±0.13)",sign of distress [3],"potency in Hb solution ([4]; Hb solution studies, Table 2)",p50 shift at increasing chloride concentration [4],Hb bovine(p50) [4] [mmHg],"Hill coefficient ([3]; rats (n=5), 84 mg/kg then 84 mg/(kg h) for 2 h, initial 2.62±0.10)","p50 ([3]; rats (n=5), 84 mg/kg then 84 mg/(kg h) for 2 h, initial 36.0±2.7) [mmHg]"
"CC(C)(Oc1ccc(CC(=O)Nc2cc(Cl)cc(Cl)c2)cc1)C(=O)O [RSR-4, 2-[4-[[(3,5-dichloroanilino)carbonyl]methyl]phenoxy]-2-methylpropionic acid]",remains locked in the high-affinity R-state,39,34,41.5,60.7±8.1,1.74±0.08,did not show any sign of distress,"significantly larger than that of L3,5",identical at all chloride concentrations,59,–,–
"CC(C)(Oc1ccc(NC(=O)Nc2cc(Cl)cc(Cl)c2)cc1)C(=O)O [L3,5, reference compound]",remains locked in the high-affinity R-state,30,25,42,–,–,–,–,identical at all chloride concentrations,37,–,–
Cc1cc(C)cc(NC(=O)Cc2ccc(OC(C)(C)C(=O)O)cc2)c1 [RSR-13],–,–,–,–,–,–,did not show any sign of distress,–,–,–,1.73±0.08,61.4±5.8
